Measured values taken from patent publication US20130236501A1, “Injectable Emulsion of Sedative Hypnotic Agent” (ASTRAZENECA AB, priority 2010, published 2013).
In brackets after ≈: the same amount, converted by molar mass.

Assay: Water solubility of Compound A
Format: physicochemical
Experimental: Agents for sedation and anaesthesia are frequently administered by intravenous injection, a form of administration for which the agents need to be in a water-miscible form. Compound A, however, is an oleaginous compound with a water solubility of about 2 mg/ml. Such a compound is considered “slightly soluble” in the solubility definitions in General Notices 5.30 of the United States Pharmacopeia, USP33-NF28, published by the United States Pharmacopeial Convention Inc., Rockville, Md. In the case of Compound A, this solubility is not optimal for a therapeutically useful dose to be prepared simply by dissolution in water. The preparation of slightly soluble medicinal compounds for intravenous administration has been the subject of considerable investigation, but remains a significant challenge in the development of new therapeutic agents. Several drug delivery systems have been investigated for such compounds. In the present application, emulsions, in which droplets of oil, in which the drug is itself dissolved, are dispersed in an aqueous medium with the aid of an emulsifier and other suitable excipients and processing. A similar method is used for the commercial formulation of propofol, (2,6-diisopropyl-phenol), which is commercially available as Diprivan® Injectable Emulsion at concentrations of 1% and 2%. Oil-in-water emulsions comprising propofol are described in WO 96/29064.

## CCCOC(=O)Cc1ccc(OCC(=O)N(CC)CC)c(OCC)c1 [Compound A, [3-ethoxy-4-[(N,N-diethylcarbamido)methoxy]phenyl]acetic acid n-propyl ester]
  solubility: ~2000 µg/mL (≈ 5.69 mM)
